US20110263478A1, “SUR1 INHIBITORS FOR THERAPY” (priority 2008, published 2011)

Key:
[1] = loading dose 10 μg/kg i.p. plus 200 ng/hr s.q.; cited from earlier work
[2] = tested on: NCCa-ATP channels in bEnd.3 cells; test: Patch clamp, Na azide-induced ATP depletion current in endothelial cells exposed to hypoxia; assay type: cell-based, murine; conditions: 1 μM glibenclamide; hypoxic endothelial cells
Experimental: Patch clamp of endothelial cells was performed using a nystatin-perforated patch technique, to maintain the metabolic integrity of the cells. The identity of the activated channel can be assessed by measurement of the “reversal potential”, the potential at which an ion channel current reverses from inward to outward. With physiologically relevant concentrations of ions intracellularly and extracellularly (high potassium inside, high sodium outside), the reversal potential can unambiguously distinguish between a K^+ channel current such as KATP, which reverses negative to −50 mV and a non-selective cation channel current such as NCCa-ATP, which reverses near 0 mV.
Cell culture. Endothelial cell cultures from human brain microvessels, human aorta (ScienCell Research Laboratories), and murine brain microvessels (bEnd.3; ATCC), were grown at low density using media and supplements recommended by suppliers.

[3] = tested on: rats with percussion-TBI; test: Percussion-TBI rats: lesion size and hippocampal histology; assay type: in vivo, rat; conditions: 7 days post-TBI
Description: Young adult male Long-Evans rats, 240-280 gm, were studied. Rats were anesthetized (Ketamine and Xylazine) and physiological parameters including temperature and blood gases were maintained within appropriate physiological ranges. With the head fixed in a stereotaxic frame, a 6-mm circular craniectomy was created abutting the sagittal and lambdoidal sutures. A posterior location was chosen to emphasize damage to underlying hippocampus (Vink et al., 2001; Floyd et al., 2002). […] Sham controls underwent craniectomy without percussion.

[4] = cited from earlier work
[5] = tested on: rats with spinal cord injury (SCI); test: Rat cervical SCI model: histology, capillaries and lesion size; assay type: in vivo
Experimental: (§1) SCI injury model. This study was performed in accordance with the guidelines of the Institutional Animal Care and Use Committee. Adult female Long-Evans rats (275-350 gm) were anesthetized (Ketamine, 60 mg/kg plus Xylazine, 7.5 mg/kg, i.p.). The dura at C4-5 was exposed via a left hemilaminectomy. A hemi-cervical spinal cord contusion was created using a blunt force impactor (1.3-mm impactor head driven by a 10 gm weight dropped vertically 25 mm) (Soblo sky et al., 2001; Gensel et al., 2006). After SCI, animals were given 10 ml of glucose-free normal saline s.q. Rectal temperature was maintained at ˜37° C. using a servo-controlled warming blanket. Blood gases and serum glucose 10-15 min post-SCI were: pO2, 95±6 mm Hg; pCO2, 46±3 mm Hg; pH, 7.33±0.01; glucose 258±17 mg/dl in controls and pO2, 96±7 mm Hg; pCO2, 45±2 mm Hg; pH, 7.37±0.01; glucose 242±14 mg/dl in glibenclamide-treated animals.
Drug delivery. […] During the course of the project, slightly different formulations of drug were used, with the best results obtained using stock solutions made by placing 50 mg (or 25 mg) of drug into 10 ml DMSO, and infusion solutions made by placing 400 μl (or 800 μl) stock into 4.6 ml (or 4.2 ml) unbuffered saline (0.9% NaCl) and adjusting the pH to ˜8.5 using 0.1 N NaOH.
Lesion size. At 7 d post-SCI, cords were paraffin sectioned and stained with H&E. Lesion volumes were calculated from lesion areas measured on serial sections every 250 μm.
Immunohistochemistry. Cryosections were immunolabeled (Chen et al., 2003; Simard et al., 2006) using primary antibodies directed against SUR1 (Santa Cruz, C-16; 1:200; 1 h at RT, 48 h at 4° C.), SUR2 (Santa Cruz, H-80; 1:200; 1 h at RT, 48 h at 4° C.), GFAP (Sigma, C-9205; 1:500), and vimentin (Sigma, monoclonal CY3 conjugated; 1:100). Quantitative immunofluorescence was performed as described (Gerzanich et al., 2003).

[6] = tested on: rats with spinal cord injury (SCI); test: Rat cervical SCI model: neurobehavioral assessment (inclined plane, paw placement, rearing); assay type: in vivo
Experimental: as §1, with “blanket.” for “blanket. Blood gases and serum glucose 10-15 min post-SCI were: pO2, 95±6 mm Hg; pCO2, 46±3 mm Hg; pH, 7.33±0.01; glucose 258±17 mg/dl in controls and pO2, 96±7 mm Hg; pCO2, 45±2 mm Hg; pH, 7.37±0.01; glucose 242±14 mg/dl in glibenclamide-treated animals.”
For in vivo gene suppression of SUR1, we used oligodeoxynucleotides that were phosphorothioated at 4 distal bonds to protect against endogenous nucleases (35).
Neurobehavioral assessment. All measurements were performed by blinded evaluators. Performance on the inclined plane was evaluated as described (Rivlin and Tator, 1977). To assess paw placement and vertical exploration (rearing) (Nikulina et al., 2004) animals were videotaped while in a translucent cylinder (19×20 cm). Rearing was quantified as the number of seconds spent with both front paws elevated above shoulder-height during a 3-min period of observation.

[7] = tested on: rats with spinal cord injury (SCI); conditions: rodent model of SCI (Simard et al., 2007); cited from earlier work
[8] = Testing of glibenclamide doses for effect on serum glucose in rats; assay type: in vivo, rat; conditions: dose1-dose4 (loading 2.5-20 μg/kg i.p., infusion 75-600 ng/hr s.q.); uninjured, stroke and SCI rats
[9] = 1, 3 and 7 d post-SCI, vs vehicle

SMILES: COc1ccc(Cl)cc1C(=O)NCCc1ccc(S(=O)(=O)NC(=O)NC2CCCCC2)cc1 [glibenclamide]
- effect on serum glucose [1]: minimal effects
- estimated serum concentration [1]: < 10 nM
- block of Na azide-induced ohmic current [2]: blocked
- hippocampus on Nissl stained sections [3]: sparing of hippocampus, including sparing of neurons in CA1, CA3 and dentate gyrus regions
- lesion area on coronal sections at epicenter of injury ([3]; control 8.2±1.3, P=0.025): 4.4±0.8 mm^2
- pKa [4]: 6.3
- lesion, reactive gliosis and myelin (GFAP and myelin labeling) ([5]; 24 h post-SCI, vs controls): smaller lesions, less reactive gliosis and better myelin preservation
- lesion volume, reduction compared to controls ([5]; 7 d post-SCI): 3 fold
- vimentin(+) capillaries in region of injury ([5]; post-SCI, vs controls): the capillaries were elongated and appeared more normal
- performance on inclined plane [6, 9]: significantly better performance
- vertical exploratory behavior (rearing) [6, 9]: significantly better performance
- vertical exploration (rearing), time during 3-min observation ([6]; 1 d post-SCI, 200 ng/h s.q.): 42 ± 7 s
- ipsilateral paw placement ([6]; 1 d post-SCI, vs vehicle): significantly better performance
- general mobility ([6]; post-SCI, vs vehicle-treated rats generally not mobile): typically ambulatory and often exhibited proficient exploratory behavior
- reduction in lesion volume after SCI [7]: 3 fold
- effect of doses on serum glucose [8]: only the highest are hypoglycemogenic, but only mildly so
